The values that follow come from patent publication US7595401B2, “Therapeutic compounds and their use in cancer” (Myriad Pharmaceuticals, Inc., priority 2006, dated 2009).

Broadly, the % Inhibition is how much of the control response was suppressed. Higher therefore signals strong suppression. The IC50 is the concentration that inhibits the measured activity by half. A low value points to greater potency in that assay.

Each structure is given as a SMILES string.

For one assay, the system named is purified human Hsp90. In words: Binding Assay: fluorescence polarization with BODIPY-labeled geldanamycin. The following applies: 5 μM compound, BODIPY-GM 10 nM, Hsp90 30 nM. As for the experimental part:
Compound binding to purified Hsp90 was monitored using BODIPY-labeled geldanamycin (BODIPY-GM) in a fluorescence polarization assay adapted from Kim et al. (Journal of Biomolecular Screening 2004, 9(5):375-381). Compound dilutions (in 100% DMSO) were added to black-bottom 96-well plates (Greiner; 2% DMSO final), and equal volumes of BODIPY-GM (10 nM final) and purified human Hsp90 (Stressgen, SPP-770; 30 nM final) in assay buffer (20 mM HEPES-KOH pH 7.3, 50 mM KCl, 5 mM MgCl2, 20 mM Na2MoO4, 0.01% NP-40, 0.1 mg/mL bovine gamma globulin [Invitrogen, P2045], 2 mM DTT) were added sequentially to yield a final volume of 50 microliters. Plates were incubated overnight at room temperature. Parallel and perpendicular fluorescence measurements were read (LJL BioSystems Analyst AD plate reader) with excitation/emission wavelengths of 485/530 nm. Background fluorescence (buffer only) was subtracted, and fluorescence polarization (FP) values, expressed in mP units, were calculated from parallel and perpendicular fluorescence readings as follows: FP=(parallel−perpendicular)/(parallel+perpendicular)*1000
Percent inhibition was calculated by normalizing the FP values to those obtained in parallel reactions containing DMSO and subtracting these normalized values from 100%. Intrinsic compound fluorescence was independently monitored, and FP data points confounded by compound fluorescence were excluded from the analysis.
A general note: In fluorescence polarisation assays a small probe gives low polarisation when free and higher when bound to something large.
In the case of `CC(C)(C)OC(=O)N1CCC(CCn2cnc(N)c3nc(Sc4cc5c(cc4Br)OCO5)nc2-3)CC1` [Example 344, tert-Butyl 4-(2-{6-amino-8-[(6-bromo-1,3-benzodioxol-5-yl)thio]-3H-purin-3-yl}ethyl)piperidine-1-carboxylate], the “% Inhibition at 5 μM Compound Concentration” value (from here on “% Inhibition”) was 22%.

As for `Nc1ncn(CCC(N)C2CC2)c2nc(Sc3cc4c(cc3Br)OCO4)nc1-2` (centres unmarked) [Example 688, 3-(3-Amino-3-cyclopropylpropyl)-8-[(6-bromo-1,3-benzodioxol-5-yl)thio]-3H-purin-6-amine], the “% Inhibition” value is given as 30%.

As for `CCOc1ccc(OCC)c(Sc2nc3c(N)ncn(CCc4ccccc4Cl)c-3n2)c1` [Example 192, 3-[2-(2-chloro-phenyl)-ethyl]-8-(2,5-diethoxy-phenylsulfanyl)-3H-purin-6-ylamine], the “% Inhibition” value is listed as 0%.

With `COc1ccc(OC)c(Sc2nc3c(N)ncn(CCc4ccc(NC(=O)OC(C)(C)C)cc4)c-3n2)c1` [Example 215, (4-{2-[6-amino-8-(2,5-dimethoxy-phenylsulfanyl)-purin-3-yl]-ethyl}-phenyl)-carbamic acid tert-butyl ester], the “% Inhibition” value was 0%.

Still in this assay, the particulars now being: BODIPY-GM 10 nM, Hsp90 30 nM.
`CCC(CC)N1CCN(CCn2c(Sc3cc(OC)ccc3OC)nc3c(N)ncnc32)CC1` [Example 627, 8-[(2,5-Dimethoxyphenyl)thio]-9-{2-[4-(1-ethylpropyl)piperazin-1-yl]ethyl}-9 H-purin-6-amine] yielded an IC50 above 8000 nM.

In turn, `Nc1ncnc2c1nc(S(=O)(=O)c1ccc(Cl)cc1)n2CCc1ccccc1` [Example 17, 8-(4-Chloro-phenylsulfonyl)-9-phenethyl-9H-purin-6-ylamine] yielded an IC50 above 10000 nM.

Turning to `Nc1ncnc2c1nc(Sc1cc3c(cc1Br)OCCO3)n2CCC1CCN(C=O)CC1` [Example 545, 4-(2-{6-Amino-8-[(7-bromo-2,3-dihydro-1,4-benzodioxin-6-yl)thio]-9 H-purin-9-yl}ethyl)piperidine-1-carbaldehyde], the IC50 came to 50 nM.

As for `Nc1ncnc2c1nc(Sc1cc3c(cc1Br)OCO3)n2CC[C@H]1CCCN(C=O)C1` [Example 604, (3R)-3-(2-{6-Amino-8-[(6-bromo-1,3-benzodioxol-5-yl)thio]-9 H-purin-9-yl}ethyl)piperidine-1-carbaldehyde], the IC50 is 190 nM.

As to `CC(C)(C)OC(=O)Nc1ccc(CCn2c(Sc3cc4c(cc3Br)OCO4)nc3c(N)ncnc32)cc1` [Example 211, (4-{2-[6-Amino-8-(6-bromo-benzo[1,3]dioxol-5-ylsulfanyl)-purin-9-yl]-ethyl}-phenyl)carbamic acid tert-butyl ester], the IC50 is above 25000 nM.

As for `COc1ccc(OC)c(Sc2nc3c(N)ncnc3n2CCn2ccnc2)c1` [Example 335, 8-[(2,5-Dimethoxyphenyl)thio]-9-[2-(1H-imidazol-1-yl)ethyl]-9H-purin-6-amine], the IC50 was found to be 3000 nM.

As for `Nc1ncnc2c1nc(Sc1cc3c(cc1Br)OCO3)n2CCN1CCN(C2CCCC2)CC1` [Example 632, 8-[(6-Bromo-1,3-benzodioxol-5-yl)thio]-9-[2-(4-cyclopentylpiperazin-1-yl)ethyl]-9 H-purin-6-amine], the IC50 is above 3000 nM.

Consider `N#Cc1cc2c(cc1Sc1nc3c(N)ncnc3n1CCc1ccccc1Cl)OCO2` [Example 326, 6-({6-Amino-9-[2-(2-chlorophenyl)ethyl]-9H-purin-8-yl}thio)-1,3-benzodioxole-5-carbonitrile], for which the IC50 was 35 nM.

In the case of `CC(C)(C)OC(=O)N1CC(CCn2c(Sc3cc4c(cc3Br)OCO4)nc3c(N)ncnc32)C1` [Example 458, tert-Butyl 3-(2-{6-amino-8-[(6-bromo-1,3-benzodioxol-5-yl)thio]-9H-purin-9-yl}ethyl)azetidine-1-carboxylate], the concentration for half-maximal inhibition (IC50) worked out at 380 nM.

Consider `CC(C)(C)OC(=O)NC(CCn1cnc(N)c2nc(Sc3cc4c(cc3Br)OCO4)nc1-2)C1CCCCC1` (centres unmarked) [Example 671, tert-Butyl(3-{6-amino-8-[(6-bromo-1,3-benzodioxol-5-yl)thio]-3H-purin-3-yl}-1-cyclohexylpropyl)carbamate], for which the IC50 came out at 1000 nM.
